# Test results published in patent US6906078B2, “Method of using (H+/K+) ATPase inhibitors as antiviral agents” (Pharmacia Corporation, priority 1994, dated 2005).
# Experiments:
# [1] = molecular target: HCMV protease (assemblin) (Human cytomegalovirus, UniProt P16753); assay: Enzymatic assay for HCMV protease (assemblin) inhibitors, fluorogenic substrate DE2; format: biochemical; details: at 100 μm; 30 min preincubation at 22° C.; read-out: Assemblin Inhibition % Inhibition at 100 μm
# Experimental: The enzymatic assay for assemblin inhibitors compared the rate of product appearance between a control reaction containing no inhibitor and one that contained a known concentration of a potential inhibitor. There were two phases to the enzyme reaction. The first was a period of incubation of enzyme in the presence of inhibitor, but in the absence of the substrate. This incubation allowed for the inhibitor to bind and potentially block the enzyme from hydrolyzing the substrate. The second phase was started by adding the substrate and measuring the rate of product production.
# The construction also encoded six additional histidine residues at the amino terminus of the protease. These additional histidine residues provided an affinity ligand by which it was purified using nickel-nitriloacetic acid-agarose (Qiagen).
# The purified protease was stored as a 1-3 mg/ml stock solution in 50 mM sodium phosphate buffer, pH 7.4; 300 mM sodium chloride; 100 mM imidazole; 50% (v/v) glycerol. This stock was diluted with assay buffer to 4.8 μg/ml. A 100 μL aliquot of this solution was used in the enzyme reaction.
# A specific substrate was synthesized based on the cleavage specificity of HCMV protease at the “maturation site” of the assembly protein (F. Liu and B. Roizman, J. Viral. 65, 5149 (1991), and A. R. Welch, et al, J. Viral., 65 4091 (1991)). The assembly protein maturation site has the sequence . . . AGVVNA*SCRLATA . . . (SEQ ID NO. 1); the substrate used was dabcycl-Abu-[…]-edans (SEQ ID NO. 2) (DE2). […] However, when the two chromophores are separated because of hydrolysis of the peptide moiety by HCMV protease the edans fluorescence was no longer quenched and an increase in fluorescence was realized. DE2 was stored as a stock solution at 160 μg/ml in dimethyl sulfoxide. This was diluted 10-fold with assay buffer to give a concentration of 16 μg/ml just before use. An aliquot of 50 μL was used in the reaction.
# An assay Buffer (10 mM sodium phosphate buffer, pH 7.4; 150 mM sodium acetate; 0.1% CHAPS; and 20% (v/v) glycerol) was used to dilute stock solutions of enzyme and substrate.
# Inhibitors were dissolved in dimethyl sulfoxide at 16-times the final assay concentration. A 10 μL aliquot of this inhibitor solution was used in the reaction.
# A 100 μL aliquot of enzyme solution (4.8 μg/ml) was mixed with 10 μL of inhibitor solution in a 96-well plate cell and incubated at 22° C. for 30 minutes. Control reactions contained 10 μL of dimethylsulfoxide instead of inhibitor solution. After the preincubation was completed, 50 μL of substrate solution was added and the fluorescence recorded every 5 minutes for a period of 30 minutes. All reactions were run in triplicate with the exception of the uninhibited control reaction which was replicated 6-fold. The change in fluorescence was recorded over time and an average rate for each set of 3 reactions was calculated. Fluorescence assays were subject to spurious various due to factors such as dust in the 96-well plate; such results were omitted from the calculation of relative rates.
# [2] = molecular target: T1, (H+/K+)-ATPase (Canis lupus familiaris, UniProt P50996); assay: Inhibition of (H+/K+)-ATPase from canine gastric mucosa (inorganic phosphate release); format: biochemical; details: canine gastric mucosa microsomes, pH 6.0, 30 min preincubation at 37° C.; read-out: (H+/K+)-ATPase IC50
# T1 construct: The microsomes retained at the 15%-30% sucrose interface, after centrifugation at 250,000×g for sixty minutes, were used as the source of (H^+/K^+)-ATPase; from tissue; host or cells: gastric glandular mucosa of mongrel dogs (microsomal fraction, lyophilized)
# T1 sequence (P50996 whole entry): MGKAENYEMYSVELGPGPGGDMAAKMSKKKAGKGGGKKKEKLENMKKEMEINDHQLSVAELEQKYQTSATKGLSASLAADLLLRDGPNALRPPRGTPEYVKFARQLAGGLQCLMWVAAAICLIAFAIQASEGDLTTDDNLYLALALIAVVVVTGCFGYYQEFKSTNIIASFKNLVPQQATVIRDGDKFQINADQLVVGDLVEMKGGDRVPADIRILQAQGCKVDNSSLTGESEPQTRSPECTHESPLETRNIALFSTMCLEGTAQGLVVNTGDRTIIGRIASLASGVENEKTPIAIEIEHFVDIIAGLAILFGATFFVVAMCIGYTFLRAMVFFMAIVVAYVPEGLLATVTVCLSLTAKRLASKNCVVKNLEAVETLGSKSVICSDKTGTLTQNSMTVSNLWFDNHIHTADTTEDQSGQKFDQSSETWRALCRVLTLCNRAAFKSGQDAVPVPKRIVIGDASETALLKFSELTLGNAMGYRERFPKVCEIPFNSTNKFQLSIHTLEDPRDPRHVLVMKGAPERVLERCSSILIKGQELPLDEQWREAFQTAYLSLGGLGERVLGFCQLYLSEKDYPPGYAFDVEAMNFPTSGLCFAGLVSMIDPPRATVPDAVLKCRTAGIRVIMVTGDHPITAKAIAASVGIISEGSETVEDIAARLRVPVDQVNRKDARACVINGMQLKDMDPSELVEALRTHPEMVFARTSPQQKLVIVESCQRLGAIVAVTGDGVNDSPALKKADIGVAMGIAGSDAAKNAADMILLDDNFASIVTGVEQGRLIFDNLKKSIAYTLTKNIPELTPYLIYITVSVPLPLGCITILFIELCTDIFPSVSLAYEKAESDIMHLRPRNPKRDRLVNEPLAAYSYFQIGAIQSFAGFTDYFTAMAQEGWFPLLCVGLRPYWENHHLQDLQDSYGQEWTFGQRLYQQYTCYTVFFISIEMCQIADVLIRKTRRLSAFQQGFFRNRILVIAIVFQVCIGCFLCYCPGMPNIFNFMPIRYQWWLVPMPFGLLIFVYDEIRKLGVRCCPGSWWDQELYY
# T1 sequence (P33704 whole entry partner): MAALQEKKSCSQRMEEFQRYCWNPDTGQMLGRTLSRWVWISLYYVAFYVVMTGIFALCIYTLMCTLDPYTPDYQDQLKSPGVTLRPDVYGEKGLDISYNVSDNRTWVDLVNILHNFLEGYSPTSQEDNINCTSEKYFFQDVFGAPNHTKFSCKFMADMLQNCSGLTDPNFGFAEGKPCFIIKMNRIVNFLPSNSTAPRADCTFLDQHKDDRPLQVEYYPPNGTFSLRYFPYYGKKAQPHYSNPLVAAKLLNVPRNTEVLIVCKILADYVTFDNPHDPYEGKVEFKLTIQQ
# Outline: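 Lyophilised gastric microsomes (sucrose-gradient 15%/30% interface fraction from dog mucosa, ~25 mcg protein) preincubated with compound 30 min at 37° C in 20 mM MES-Tris pH 6.0, 5 mM MgCl2, 25 mM sucrose, then 30 min more after 4 mM Tris-ATP. Released phosphate read by molybdate/ascorbate at 870 nm; activity = K+-stimulated (20 mM KCl) minus basal.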
# Sequence of HCMV protease (assemblin) (P16753 1-256): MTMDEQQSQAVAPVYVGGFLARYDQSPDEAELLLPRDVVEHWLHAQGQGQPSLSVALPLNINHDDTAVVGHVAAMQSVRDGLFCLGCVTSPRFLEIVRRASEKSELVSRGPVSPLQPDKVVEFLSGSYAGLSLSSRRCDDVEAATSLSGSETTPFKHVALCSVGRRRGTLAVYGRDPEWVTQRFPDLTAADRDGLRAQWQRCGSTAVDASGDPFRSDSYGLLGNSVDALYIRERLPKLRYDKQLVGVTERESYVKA
inhibition at 100 µM [1],IC50 [2],Structure (SMILES)
0%,1900 nM,"COc1ccc2[nH]c([S+]([O-])Cc3ncc(C)c(OC)c3C)nc2c1 (stereo not drawn) [omeprazole, reference compound]"
74%,12000 nM,"Nc1ccccc1C[S+]([O-])c1nc2cc(Cl)ccc2[nH]1 (stereo not drawn) [Example 43, 2-[[(5-Chloro-1H-benzimidazol-2-yl)sulfinyl]-methyl]benzenamine]"
67%,7900 nM,"Cc1ccc2[nH]c([S+]([O-])Cc3ccccc3N)nc2c1 (stereo not drawn) [Example 41, 2-[[(5-Methyl-1H-benzimidazol-2-yl)sulfinyl]-methyl]benzenamine]"

# More lines, now with the values behind:
Structure (SMILES),inhibition at 100 µM [1],IC50 [2]
"Cc1ccc(C[S+]([O-])c2nc3ccccc3[nH]2)c(N)c1C (stereo not drawn) [Example 53, 2-[(1H-Benzimidazol-2-ylsulfinyl)methyl]-5,6-dimethylbenzenamine ¼ hydrate]",85%,600 nM
"COc1ccc2[nH]c([S+]([O-])Cc3c(N)cc(C)c(OC)c3C)nc2c1 (stereo not drawn) [Example 78, 2-[[(5-Methoxy-1H-benzimidazol-2-yl)sulfinyl]methyl]-4-methoxy-3,5-dimethylbenzenamine]",82%,2100 nM
"COc1ccc(N)c(C[S+]([O-])c2nc3ccccc3[nH]2)c1 (stereo not drawn) [Example 20, 2-[(1H-Benzimidazol-2-ylsulfinyl)methyl]-4-methoxybenzenamine]",60%,1600 nM
